Series [1] can be described thus: Selectivity ratio of IC50 for neonatal HDF cells to MIC for Mycobacterium tuberculosis Spec. 210. Format: ADME, cell-based. Particulars: human.
Series [2] in a line: Selectivity ratio of IC50 for mouse B16F10 cells to MIC for Mycobacterium tuberculosis Spec. 210. The format is ADME, cell-based, B16-F10.
Series [3] in a line: Cytotoxicity against neonatal HDF cells after 7 days by MTT/SRB assay. Format: cell-based. Particulars: Homo sapiens, 168 h. For orientation: In SRB staining, fixed cells bind dye roughly in proportion to their protein.
Series [4] in a line: Cytotoxicity against mouse B16F10 cells after 7 days by MTT/SRB assay. Format: cell-based. The note with it: B16-F10, 168 h.
For series [5], the system named is Mycobacterium tuberculosis. As to the kind of experiment: Tuberculostatic activity against Mycobacterium tuberculosis H37Rv by two-fold classical test-tube method. The format is functional.
Series [6] concerns Mycobacterium tuberculosis. As to the kind of experiment: Tuberculostatic activity against Mycobacterium tuberculosis Spec. 210 by two-fold classical test-tube method. Format: functional.
Series [7] is described as follows: Cytotoxicity against HEK cells after 7 days by MTT/SRB assay. Format: cell-based. The note with it: Homo sapiens, HEK293, 168 h.
Series [8] concerns Mycobacterium tuberculosis. Briefly: Tuberculostatic activity against Mycobacterium tuberculosis Spec. 192 by two-fold classical test-tube method. Format: functional.
The nature of series [9]: Selectivity ratio of IC50 for mouse B16F10 cells to MIC for Mycobacterium tuberculosis Spec. 192. Format: ADME, cell-based, B16-F10.
Series [10] can be described thus: Selectivity ratio of IC50 for neonatal HDF cells to MIC for Mycobacterium tuberculosis Spec. 192. The format is ADME, cell-based. Particulars: human.
Series [11] is described as follows: Selectivity ratio of IC50 for neonatal HDF cells to MIC for Mycobacterium tuberculosis H37Rv. The format is ADME, cell-based. The note with it: human.
The nature of series [12]: Selectivity ratio of IC50 for mouse B16F10 cells to MIC for Mycobacterium tuberculosis H37Rv. Format: ADME, cell-based, B16-F10.

≈ marks a conversion by molar mass, not a printed value. Where only a bound is given, the exact number is not on record here.

From ChEMBL document CHEMBL3399921, “Novel 2-(2-phenalkyl)-1H-benzo[d]imidazoles as antitubercular agents. Synthesis, biological evaluation and structure-activity relationship” (Bioorg Med Chem, 2015) come the findings set out here.

A word on the IC50: it is the concentration that gives 50% inhibition. Higher therefore signals weaker potency in that assay. As a reminder, the MIC is the smallest concentration in the dilution series that meets the test's criterion for growth inhibition. With `Cc1cc2nc(CCc3cc(Cl)cc(Cl)c3)[nH]c2cc1C`, the selectivity ratio in series [1] is > 11; in [2], 6; in [9] it was 6; in series [10] it was > 11. Further, the figures for the IC50 in series [3], in series [4] and in series [7] were 58 µM, 28 µM and 7.8 µM, respectively. Further, the figures for the MIC in [5], in [6] and in series [8] were 2.5 µM (≈ 0.798 µg/mL), 5 µM (≈ 1.6 µg/mL) and 5 µM (≈ 1.6 µg/mL), respectively.

On to `C(=C\c1nc2cc3ccccc3cc2[nH]1)/c1ccccc1`, for which the MIC in series [5], in series [6] and in [8] was 93 µM (≈ 25.1 µg/mL) in each case.

On to `Cc1cc2nc(/C=C/c3ccccc3)[nH]c2cc1C`, for which the MIC in series [5] amounted to 25 µM (≈ 6.21 µg/mL); in series [6], 25 µM (≈ 6.21 µg/mL); in series [8], 13 µM (≈ 3.23 µg/mL).

In the case of `O=[N+]([O-])c1cc(Cl)cc2[nH]c(CCc3cc(Cl)cc(Cl)c3)nc12`, the MIC in series [5] worked out at 68 µM (≈ 25.2 µg/mL); in [6], 271 µM (≈ 100 µg/mL); in [8] it was 68 µM (≈ 25.2 µg/mL).

Take `O=S(=O)(c1ccccc1)n1c(CCc2ccccc2)nc2cc(F)ccc21`: the MIC in [5], in series [6] and in series [8] was 263 µM (≈ 100 µg/mL) each time.

In the case of `CS(=O)(=O)n1c(CCc2ccccc2)nc2cc(F)ccc21`, the MIC in series [5], in series [6] and in series [8] was 314 µM (≈ 100 µg/mL) each time.

On to `Cc1cc2nc(CCc3ccccc3)n(S(C)(=O)=O)c2cc1C`, for which the MIC in series [5], in [6] and in series [8] was 76 µM (≈ 25 µg/mL) in each case.

Regarding `CS(=O)(=O)n1c(/C=C/c2cc(Cl)cc(Cl)c2)nc2cc(F)ccc21`, the MIC in [5] was determined as 130 µM (≈ 50.1 µg/mL); in series [6], 130 µM (≈ 50.1 µg/mL); in [8], 259 µM (≈ 99.8 µg/mL).

As for `CS(=O)(=O)n1c(/C=C/c2ccccc2)nc2cc(F)ccc21`, the MIC in [5], in series [6] and in series [8] was 158 µM (≈ 50 µg/mL) each time.

Regarding `Clc1cc(Cl)cc(CCc2nc3cc4ccccc4cc3[nH]2)c1`, the MIC in series [5], in series [6] and in series [8] was 18 µM (≈ 6.14 µg/mL) each time.

Regarding `Fc1ccc2[nH]c(/C=C/c3ccccc3)nc2c1`, the MIC in [5] amounted to 210 µM (≈ 50 µg/mL); in [6], 105 µM (≈ 25 µg/mL); in [8] it was 210 µM (≈ 50 µg/mL).

`Cc1cc2nc(/C=C/c3ccccc3)n(S(=O)(=O)c3ccccc3)c2cc1C`: the MIC in [5], in series [6] and in [8] was 258 µM (≈ 100 µg/mL) in each case.

For `O=S(=O)(c1ccccc1)n1c(CCc2cc(Cl)cc(Cl)c2)nc2cc(F)ccc21`, the values for the MIC in series [5], in series [6] and in [8] were 56 µM (≈ 25.2 µg/mL), 56 µM (≈ 25.2 µg/mL) and 112 µM (≈ 50.3 µg/mL), respectively.

For `Cc1cc2nc(CCc3ccccc3)[nH]c2cc1C`, the IC50 stood at 7.9 µM in [3], 3.9 µM in [4] and 2.5 µM in series [7]. Also, the MIC in series [5], in series [6] and in series [8] was 6.3 µM (≈ 1.58 µg/mL) each time.

On to `Cc1cc2nc(CCc3cc(Cl)cc(Cl)c3)n(S(C)(=O)=O)c2cc1C`, for which the MIC came out at 32 µM (≈ 12.7 µg/mL) in series [5], 32 µM (≈ 12.7 µg/mL) in series [6] and 63 µM (≈ 25 µg/mL) in [8].

With `Nc1c(NC(=O)CCc2ccccc2)cc(Cl)cc1[N+](=O)[O-]`, the MIC in [5], in [6] and in series [8] was 320 µM (≈ 102 µg/mL) throughout.

`NC(=O)c1cnccn1` [PYRAZINAMIDE]: the MIC in [5] was 203 µM (≈ 25 µg/mL); in series [6] it was 3250 µM (≈ 400 µg/mL); in [8] it was 203 µM (≈ 25 µg/mL).

Turning to `Cc1cc2nc(CCc3cc(Cl)cc(Cl)c3)n(S(=O)(=O)c3ccccc3)c2cc1C`, the MIC in [5], in series [6] and in [8] was 55 µM (≈ 25.3 µg/mL) in each case.

Take `Nc1c(NC(=O)CCc2cc(Cl)cc(Cl)c2)cc(Cl)cc1[N+](=O)[O-]`: the selectivity ratio in [11] was 10; in series [12] it was 7.5; in [9], 7.5; in series [10], 10. For the same molecule, the IC50 in series [3] came out at 80 µM; in series [4] it was 59 µM; in series [7], 5.1 µM. The MIC in series [5] stood at 8 µM (≈ 3.11 µg/mL); in series [6], 65 µM (≈ 25.3 µg/mL); in [8], 8 µM (≈ 3.11 µg/mL).

In the case of `Fc1ccc2[nH]c(CCc3cc(Cl)cc(Cl)c3)nc2c1`, the MIC in series [5], in [6] and in [8] was 320 µM (≈ 98.9 µg/mL) each time.

Regarding `Nc1c(NC(=O)/C=C/c2ccccc2)cc(Cl)cc1[N+](=O)[O-]`, the MIC in series [5], in series [6] and in series [8] was 320 µM (≈ 102 µg/mL) each time.

Take `Cc1cc2nc(CCc3ccccc3)n(S(=O)(=O)c3ccccc3)c2cc1C`: the results for the MIC in [5], in series [6] and in [8] were 128 µM (≈ 50 µg/mL), 128 µM (≈ 50 µg/mL) and 64 µM (≈ 25 µg/mL), respectively.

In the case of `O=[N+]([O-])c1cc(Cl)cc2[nH]c(CCc3ccccc3)nc12`, the minimal inhibitory concentration (MIC) in series [5], in series [6] and in series [8] was 330 µM (≈ 99.6 µg/mL) each time.

Consider `c1ccc(CCc2nc3cc4ccccc4cc3[nH]2)cc1`, for which the MIC in series [5], in series [6] and in [8] was 370 µM (≈ 101 µg/mL) each time.

For the molecule `NNC(=O)c1ccncc1` [ISONIAZID], the values for the MIC in series [5], in series [6] and in series [8] were 91 µM (≈ 12.5 µg/mL), 182 µM (≈ 25 µg/mL) and 91 µM (≈ 12.5 µg/mL), respectively.

As for `CO[C@H]1/C=C/O[C@@]2(C)Oc3c(C)c(O)c4c(O)c(c(/C=N/N5CCN(C)CC5)c(O)c4c3C2=O)NC(=O)/C(C)=C\C=C\[C@H](C)[C@H](O)[C@@H](C)[C@@H](O)[C@@H](C)[C@H](OC(C)=O)[C@@H]1C` [RIFAMPIN], the MIC in series [5] came to 1.4 µM (≈ 1.15 µg/mL); in [6], 2.8 µM (≈ 2.3 µg/mL); in series [8], 1.4 µM (≈ 1.15 µg/mL).

In the case of `Fc1ccc2[nH]c(CCc3ccccc3)nc2c1`, the MIC was 104 µM (≈ 25 µg/mL) in series [5], 208 µM (≈ 50 µg/mL) in series [6] and 208 µM (≈ 50 µg/mL) in series [8].

As to `O=[N+]([O-])c1cc(Cl)cc2[nH]c(/C=C/c3ccccc3)nc12`, the values for the MIC in series [5], in [6] and in [8] were 170 µM (≈ 51 µg/mL), 340 µM (≈ 102 µg/mL) and 170 µM (≈ 51 µg/mL), respectively.

As to `O=S(=O)(c1ccccc1)n1c(/C=C/c2ccccc2)nc2cc(F)ccc21`, the MIC in [5] stood at 132 µM (≈ 50 µg/mL); in series [6], 264 µM (≈ 99.9 µg/mL); in [8], 132 µM (≈ 50 µg/mL).

Turning to `Cc1cc2nc(/C=C/c3ccccc3)n(S(C)(=O)=O)c2cc1C`, the MIC in series [5], in series [6] and in [8] was 310 µM (≈ 101 µg/mL) throughout.
